Reference: patent US20190290729A1, “PHARMACEUTICAL ASSOCIATION OF GROWTH FACTOR RECEPTOR AGONIST AND ADHESION PROTEIN INHIBITOR FOR CONVERTING A NEOPLASTIC CELL INTO A NON-NEOPLASTIC CELL AND USES THEREOF” (HISTIDE AG, priority 2015, published 2019)
Where no end group is shown, it is not given here.

Assays:
[1] = system: MG63 cells; assay: p53 protein expression level, immunofluorescence staining quantified with ImageJ, osteosarcoma cells; assay type: cell-based, human; parameters: P53: unit not given here; details: for P53: Table 9, in association with SiRNA Integrin alpha 3+SiRNA Integrin beta 1 (SEQ ID NO: 141 to 163); for p53 (%): Table 4, cyclic GFR-binding peptide in association with SiRNA Integrin alpha 3 and SiRNA Integrin beta 1, 400 ng/mL, 24 hours
Description: (§1) The following starting materials and reagents were used: • Type-I collagen sponge was obtained from Sigma®. • PBS 1× was obtained from Gibco®. • MilliQ water: is water characterised in terms of resistivity (typically 18.2 MΩ·cm at 25° C.). • Low glucose Dulbecco's Modified Eagle Medium (DMEM) was obtained from Invitrogen® • Minimum Essential Medium Eagle without ascorbic acid (αMEM) was obtained from Invitrogen®. • All of the cell culture experiments were carried out without any serum in the medium for the first 8 hours of culture. • Osteosarcoma cells: MG63 cells were obtained from ATCC®. These cells were cultured in DMEM (Eagle's Minimum Essential Medium) medium supplemented with 10% fetal calf serum (FCS) and 1% penicillin/streptomycin. All cells were used at a low passage number (passage 10), were subconfluently cultured and were seeded at 10^4 cells/cm^2 for the purpose of the experiments. • Chondrosarcoma cells Hs819.T cells were obtained from ATCC®. These cells were cultured in DMEM (Eagle's Minimum Essential Medium) medium supplemented with 10% fetal calf serum (FCS) and 1% penicillin/streptomycin. All cells were used at a low passage number (passage 10), were subconfluently cultured and were seeded at 10^4 cells/cm^2 for the purpose of the experiments. • Rhabdomyosarcoma cells: A-673 cells were obtained from ATCC®. These cells were cultured in DMEM (Eagle's Minimum Essential Medium) medium supplemented with 10% fetal calf serum (FCS) and 1% penicillin/streptomycin. All cells were used at a low passage number (passage 10), were subconfluently cultured and were seeded at 10^4 cells/cm^2 for the purpose of the experiments. • Adenocarcinoma cells: HCC4006 cells were obtained from ATCC®. These cells were cultured in RPMI-1640 medium (obtained from ATCC®) supplemented with 10% fetal calf serum (FCS) and 1% penicillin/streptomycin. All cells were used at a low passage number (passage 10), were subconfluently cultured and were seeded at 10^4 cells/cm^2 for the purpose of the experiments. • CMFDA is a Cell Tracker Green obtained from Invitrogen®. • DAPI was obtained from Sigma®. • Fetal bovine serum (FBS) was obtained from Gibco®. • Penicillin/streptomycin was obtained from Invitrogen®. • The AlamarBlue® assay was obtained from Molecular Probes®. • Anti phospho-p53 antibody was obtained from Santa Cruz Biotechnology®, • Anti pRB antibody was obtained from Santa Cruz Biotechnology®, • Monoclonal anti-integrin (extracellular domain) αv, α5, α3, α4, β1, β3, β5 and β9 antibodies were obtained from Santa Cruz Biotechnology®, • Cell cytoskeletal filamentous actin (F-actin) was visualized by Alexa Fluor® 488 phalloidin Sigma® labeling. • Monoclonal anti-vinculin antibody (clone hVIN-1, produced in mouse) was obtained from Sigma®.
(§2) • All of the peptides were synthetized using conventional solution and/or solid phase peptide synthesis methods. • All of the experiments were performed with a concentration of 400 ng/mL of GFR-binding compound(s) as defined herein. • All cell culture experiments were performed with cultures on plastic coated with type-I collagen in order to mimic the physiological conditions of the human body. • The compositions of pharmaceutical compositions used in the examples below are summarized in the following table:
(§3) The cells were first fixed for 20 min with 4% paraformaldehyde/PBS at 4° C. After fixation, the cells were permeabilized in PBS containing 1% Triton X-100 for 15 min. Protein immunofluorescent visualization was performed by first treating the cells with 1% (v/v) specific monoclonal antibodies for 1 hour at 37° C. Then the samples were incubated with Alexa Fluor® 568 or 647 (F(ab′)2 fragment of IgG(H+L)) during 30 min at room temperature. The cell nuclei were counterstained in 20 ng/mL DAPI for 10 min at room temperature.
(§4) For this type of quantification the freeware image analysis ImageJ® software was used. […]

[2] = system: MG63 cells; assay: pRB phosphorylation level, immunofluorescence staining quantified with ImageJ, osteosarcoma cells; assay type: cell-based, human; details: MG63 cells; for pRB: Table 9, in association with SiRNA Integrin alpha 3+SiRNA Integrin beta 1 (SEQ ID NO: 141 to 163); for pRB (%): Table 4, cyclic GFR-binding peptide in association with SiRNA Integrin alpha 3 and SiRNA Integrin beta 1, 400 ng/mL, 24 hours
Description: as §1, §2, §3, §4

[3] = target: growth factor receptors; assay: cell-based or functional assay

Molecule	P53 [1]	pRB [2]	p53 (%) [1] [%]	pRB (%) [2] [%]	p-Smad1/5/8 (%) [3] [%]
CPKPSSAPTQLSAISTLYLDDSSNVILKNYQMIVVRA (Non-cyclic GFR-binding peptide) [SEQ ID NO: 159]	44	9			
CPSSAPTQLSATSVLYYDDSSNVILRKHRQHNK (Non-cyclic GFR-binding peptide) [SEQ ID NO: 150]	41	11			
CRNVQCRPTQVQLSAISTLYLEIVRKKPLKNYQTLEDH (Non-cyclic GFR-binding peptide) [SEQ ID NO: 149]	35	12			
CSIPKASSVPTELSATSVLYYDEYDEKVVLRKHEMVVEG (Non-cyclic GFR-binding peptide) [SEQ ID NO: 153]	39	10			
CTVPKPSSAPTQLSPISVLYKDDSSNVILKYHYNMVVRASGSH (Non-cyclic GFR-binding peptide) [SEQ ID NO: 147]	37	8			
GTPGPKVPKPSSAPTQLSAISTLYLDEYDKVVLKNYQNMAVR (Non-cyclic GFR-binding peptide) [SEQ ID NO: 163]	41	7			
SRVAARSVKMAKVGGGGGGGKEVQVAAEEHGGGGGG (not fully specified; also: cyclic peptide) [SEQ ID NO: 38213]			49	21	
SRVLLRPVQMRKIDKGVVTYKKATVLLEEHDKGVVTY (not fully specified; also: cyclic peptide) [SEQ ID NO: 38216]			41	11	
TPTSSSPINTLYFDDMGVPTYGKIPSSVVDDEYDKVV (not fully specified; also: cyclic peptide) [SEQ ID NO: 38207]			41	13	
TQVAARPVQTRKIDDMGVPTKKATVAAEDHDKGVVTY (not fully specified; also: cyclic peptide) [SEQ ID NO: 38217]			42	9	
VPEAASSLSMLFFEIVRKKPIFLKVYPAATVEDKGVVTY (not fully specified; also: cyclic peptide) [SEQ ID NO: 38201]			40	19	
VPQAAEPLPMLYYDKGVVTYEQLSNAAVRSDKGVVTY (also: cyclic peptide) [SEQ ID NO: 38210]			40	12	
VPQQQEPLTTLYYDEYDKVVEQLSNQQVKSNDKQQII (also: cyclic peptide) [SEQ ID NO: 38211]			47	14	
VPTAAEPISMLYLDEYDKVVKFKYEAAAVSNDKQQII (also: cyclic peptide) [SEQ ID NO: 38206]			36	8	
VPTAASAISILYLDAANNVVLKNYQAAVVEDKGVVTY (also: cyclic peptide) [SEQ ID NO: 38200]			41	17	
VPTDDSATSTLYYDKGVVTYLRKHRDDEHSDKGVVTY (also: cyclic peptide) [SEQ ID NO: 38214]			48	18	
VPTGGEPLTTLYYNDKQQIIEQLSNGGEHSDDMGVPT (also: cyclic peptide) [SEQ ID NO: 38215]			39	16	
VPTMMSNITTQIMRIKPHQGQHIGEMSMMQHNDEYDKVV (also: cyclic peptide) [SEQ ID NO: 38212]			51	14	
VPTSSSPISTLYIDKGVVTYLKYHYSSVAEDEYDKVV (not fully specified; also: cyclic peptide) [SEQ ID NO: 38205]			40	16	
VPTVVSAISTLYLRIKPHQGQHLKNYQVVVVENDKQQII (also: cyclic peptide) [SEQ ID NO: 38202]			42	9	
VPTVVSPISMLYIDDMGVPTYKQYEVVVVEDDMGVPT (also: cyclic peptide) [SEQ ID NO: 38208]			39	9	
WWFWGKVPKPSSAPTQLSAISTLYLDEYDKVVLKNYQNMVVR (Non-cyclic GFR-binding peptide) [SEQ ID NO: 162]	39	8			
VPTHHSAISTLYLELAGEKPLKNYQFLQHNK [GFR-binding compound SEQ ID NO: 57]					38
NDEGLECVPTEERPVQVRKIRIKPHQGQKKATVFLQHNK (not fully specified) [GFR-binding compound SEQ ID NO: 54]					41
NDEGLECVPTEERPVQVRKIRIKPHQGQKKATVFLQHNK (not fully specified) [GFR-binding compound SEQ ID NO: 59]					34
VSQDLSAISTLYLKIVRKEPLKNYQEMVEE [GFR-binding compound SEQ ID NO: 58]					49
ASASPSSVPQDLEPLTILYYVGRTPKVEQLSNMV [GFR-binding compound SEQ ID NO: 55]					32
RNVQCRPTQLEPLPIVYYEIVRKKPEQLSNTLEDHLA (not fully specified) [GFR-binding compound SEQ ID NO: 56]					47
RNVQCRPTQLEPLPIVYYEIVRKKPEQLSNTLEDHLA (not fully specified) [GFR-binding compound SEQ ID NO: 61]					44
